# Measurements from ChEMBL document CHEMBL4665648, “Potent and selective inhibitors of receptor-interacting protein kinase 1 that lack an aromatic back pocket group” (Bioorg Med Chem Lett, 2019).
# Legend:
# [1] = target: Myosin light chain kinase (Homo sapiens) (UniProt Q32MK0); experiment: Inhibition of MYLK3 (unknown origin) by selectscreen kinase assay; conditions: dose 10.0 µM, time 60.0 min
# [2] = target: Mast/stem cell growth factor receptor Kit (Homo sapiens) (UniProt P10721); experiment: Inhibition of recombinant human His-tagged KIT (544 to 976 residues) expressed in baculovirus expression system using Tyr 01 as substrate at 10 uM incubated for 60 mins by Z'-lyte assay relative to control
# [3] = target: Serine/threonine-protein kinase NLK (Homo sapiens) (UniProt Q9UBE8); experiment: Inhibition of tracer 178 binding to recombinant human GST-tagged full length NLK expressed in baculovirus expression system at 10 uM incubated for 60 mins by Lanthascreen assay relative to control
# [4] = target: Fibroblast growth factor receptor 1 (Homo sapiens) (UniProt P11362); experiment: Inhibition of recombinant human His-tagged FGFR1 (308 to 731 residues) expressed in baculovirus expression system using Tyr 01 as substrate at 10 uM incubated for 60 mins by Z'-Lyte assay relative to control
# [5] = target: Serine/threonine-protein kinase BRSK1 (Homo sapiens) (UniProt Q8TDC3); experiment: Inhibition of recombinant human GST-tagged full length BrSK1 expressed in baculovirus expression system using Ser/Thr 21 as substrate at 10 uM incubated for 60 mins by Z'-Lyte assay relative to control
# [6] = target: Tyrosine-protein kinase receptor TYRO3 (Homo sapiens) (UniProt Q06418); experiment: Inhibition of recombinant human GST-tagged full length RSE (451 to 890 residues) expressed in baculovirus expression system using Tyr 02 as substrate at 10 uM incubated for 60 mins by Z'-Lyte assay relative to control
# [7] = target: Receptor-type tyrosine-protein kinase FLT3 (Homo sapiens) (UniProt P36888); experiment: Inhibition of recombinant human His-tagged FLT3 (564 to 958 residues) expressed in baculovirus expression system using Tyr 02 as substrate at 10 uM incubated for 60 mins by Z'-Lyte assay relative to control
# [8] = target: Dual specificity protein kinase TTK (Homo sapiens) (UniProt P33981); experiment: Inhibition of tracer 236 binding to recombinant human GST-tagged full length TTK expressed in baculovirus expression system at 10 uM incubated for 60 mins by Lanthascreen assay relative to control
# [9] = target: MAP/microtubule affinity-regulating kinase 3 (Homo sapiens) (UniProt P27448); experiment: Inhibition of recombinant human GST-tagged full length MARK3 expressed in baculovirus expression system using Ser/Thr 25 as substrate at 10 uM incubated for 60 mins by Z'-lyte assay relative to control
# [10] = target: SRSF protein kinase 3 (Homo sapiens) (UniProt Q9UPE1); experiment: Inhibition of recombinant human GST-tagged full length MSSK1 expressed in baculovirus expression system using Ser/Thr 13 as substrate at 10 uM incubated for 60 mins by Z'-lyte assay relative to control
# [11] = target: Phosphorylase b kinase gamma catalytic chain, skeletal muscle/heart isoform (Homo sapiens) (UniProt Q16816); experiment: Inhibition of recombinant human GST-tagged full length PHKG1 expressed in baculovirus expression system using Ser/Thr 07 as substrate at 10 uM incubated for 60 mins by Z'-lyte assay relative to control
# [12] = Clearance in Sprague-Dawley rat at 0.5 mg/kg, iv or 2 mg/kg, po; type: ADME, organism-based; conditions: in vivo
# [13] = target: Angiopoietin-1 receptor (Homo sapiens) (UniProt Q02763); experiment: Inhibition of recombinant human GST-tagged TIE2 (817 to 1101 residues) expressed in baculovirus expression system using Ser/Thr 05 as substrate at 10 uM incubated for 60 mins by Z'-Lyte assay relative to control
# [14] = target: Serine/threonine-protein kinase PLK3 (Homo sapiens) (UniProt Q9H4B4); experiment: Inhibition of recombinant human GST-tagged PLK3 (58 to 340 residues) expressed in baculovirus expression system using Ser/Thr 16 as substrate at 10 uM incubated for 60 mins by Z'-lyte assay relative to control
# TAK1/TAB1 (Homo sapiens) = TAK1/TAB1 (Homo sapiens) (UniProt Q15750+O43318); experiment: Inhibition of tracer 236 binding to recombinant human His-tagged full length TAK1-TAB1 expressed in baculovirus expression system at 10 uM incubated for 60 mins by Lanthascreen assay relative to control
# [15] = target: Leucine-rich repeat serine/threonine-protein kinase 2 (Homo sapiens) (UniProt Q5S007); experiment: Inhibition of recombinant human GST-tagged LRRK2 (970 to 2527 residues) expressed in baculovirus expression system using LRRKtide as substrate at 10 uM incubated for 60 mins by Adapta assay relative to control
# [16] = target: PAS domain-containing serine/threonine-protein kinase (Homo sapiens) (UniProt Q96RG2); experiment: Inhibition of recombinant human GST-tagged PASK (879 to 1323 residues) expressed in baculovirus expression system using Ser/Thr 07 as substrate at 10 uM incubated for 60 mins by Z'-lyte assay relative to control
# [17] = target: Serine/threonine-protein kinase PLK1 (Homo sapiens) (UniProt P53350); experiment: Inhibition of recombinant human His-tagged full length PLK1 expressed in baculovirus expression system using Ser/Thr 16 as substrate at 10 uM incubated for 60 mins by Z'-lyte assay relative to control
# [18] = target: Serine/threonine-protein kinase MRCK alpha (Homo sapiens) (UniProt Q5VT25); experiment: Inhibition of recombinant human His-tagged MRCKA (1 to 473 residues) expressed in baculovirus expression system using Ser/Thr 13 as substrate at 10 uM incubated for 60 mins by Z'-lyte assay relative to control
# [19] = target: Serine/threonine-protein kinase Nek1 (Homo sapiens) (UniProt Q96PY6); experiment: Inhibition of recombinant human GST-tagged NEK1 (1 to 505 residues) expressed in baculovirus expression system using Ser/Thr 07 as substrate at 10 uM incubated for 60 mins by Z'-lyte assay relative to control
# [20] = target: Serine/threonine-protein kinase Sgk3 (Homo sapiens) (UniProt Q96BR1); experiment: Inhibition of recombinant human GST-tagged full length SGK3 (87 to 496 residues) expressed in baculovirus expression system using Ser/Thr 06 as substrate at 10 uM incubated for 60 mins by Z'-Lyte assay relative to control
# [21] = target: Mitogen-activated protein kinase kinase kinase 2 (Homo sapiens) (UniProt Q9Y2U5); experiment: Inhibition of tracer 236 binding to recombinant human GST-tagged full length MEKK2 expressed in baculovirus expression system at 10 uM incubated for 60 mins by Lanthascreen assay relative to control
# [22] = target: Serine/threonine-protein kinase Chk2 (Homo sapiens) (UniProt O96017); experiment: Inhibition of recombinant human His-tagged full length CHK2 expressed in baculovirus expression system using Ser/Thr 07 as substrate at 10 uM incubated for 60 mins by Z'-Lyte assay relative to control
# [23] = target: Rho-associated protein kinase 1 (Homo sapiens) (UniProt Q13464); experiment: Inhibition of recombinant human GST-tagged ROCK1 (1 to 535 residues) expressed in baculovirus expression system using Ser/Thr 07 as substrate at 10 uM incubated for 60 mins by Z'-Lyte assay relative to control
# Sequence of SRSF protein kinase 3 (Homo sapiens) (Q9UPE1 whole entry, canonical isoform): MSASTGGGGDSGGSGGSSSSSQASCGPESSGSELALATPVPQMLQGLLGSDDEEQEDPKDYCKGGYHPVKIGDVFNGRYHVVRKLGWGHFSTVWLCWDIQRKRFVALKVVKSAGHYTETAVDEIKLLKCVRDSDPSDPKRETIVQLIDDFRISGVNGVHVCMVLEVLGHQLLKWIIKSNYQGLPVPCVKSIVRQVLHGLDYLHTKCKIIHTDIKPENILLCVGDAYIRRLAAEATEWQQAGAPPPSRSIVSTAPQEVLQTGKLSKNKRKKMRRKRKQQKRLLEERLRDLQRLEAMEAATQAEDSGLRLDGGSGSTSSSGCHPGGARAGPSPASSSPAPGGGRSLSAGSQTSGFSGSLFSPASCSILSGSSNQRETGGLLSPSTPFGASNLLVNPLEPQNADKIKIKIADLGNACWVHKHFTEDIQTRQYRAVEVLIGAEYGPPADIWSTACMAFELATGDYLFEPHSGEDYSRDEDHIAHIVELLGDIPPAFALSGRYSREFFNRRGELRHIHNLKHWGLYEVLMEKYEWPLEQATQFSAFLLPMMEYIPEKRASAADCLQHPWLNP
# Sequence of Serine/threonine-protein kinase PLK1 (Homo sapiens) (P53350 whole entry, the tested form may be a part): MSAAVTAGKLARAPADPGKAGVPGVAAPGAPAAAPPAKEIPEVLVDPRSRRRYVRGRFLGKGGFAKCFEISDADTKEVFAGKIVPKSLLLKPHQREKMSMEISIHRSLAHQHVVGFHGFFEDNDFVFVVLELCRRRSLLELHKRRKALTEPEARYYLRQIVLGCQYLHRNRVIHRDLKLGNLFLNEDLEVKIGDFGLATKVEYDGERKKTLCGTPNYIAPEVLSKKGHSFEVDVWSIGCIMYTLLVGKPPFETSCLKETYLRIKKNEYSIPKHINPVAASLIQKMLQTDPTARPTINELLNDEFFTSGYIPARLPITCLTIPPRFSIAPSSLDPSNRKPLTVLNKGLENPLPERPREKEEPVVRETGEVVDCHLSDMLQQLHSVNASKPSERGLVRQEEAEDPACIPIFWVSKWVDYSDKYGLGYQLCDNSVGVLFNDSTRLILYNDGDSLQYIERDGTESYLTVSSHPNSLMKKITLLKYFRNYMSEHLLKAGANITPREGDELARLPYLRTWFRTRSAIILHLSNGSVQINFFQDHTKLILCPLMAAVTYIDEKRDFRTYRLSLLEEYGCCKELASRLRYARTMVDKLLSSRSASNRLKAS
# Sequence of Receptor-type tyrosine-protein kinase FLT3 (Homo sapiens) (P36888 whole entry, the tested form may be a part): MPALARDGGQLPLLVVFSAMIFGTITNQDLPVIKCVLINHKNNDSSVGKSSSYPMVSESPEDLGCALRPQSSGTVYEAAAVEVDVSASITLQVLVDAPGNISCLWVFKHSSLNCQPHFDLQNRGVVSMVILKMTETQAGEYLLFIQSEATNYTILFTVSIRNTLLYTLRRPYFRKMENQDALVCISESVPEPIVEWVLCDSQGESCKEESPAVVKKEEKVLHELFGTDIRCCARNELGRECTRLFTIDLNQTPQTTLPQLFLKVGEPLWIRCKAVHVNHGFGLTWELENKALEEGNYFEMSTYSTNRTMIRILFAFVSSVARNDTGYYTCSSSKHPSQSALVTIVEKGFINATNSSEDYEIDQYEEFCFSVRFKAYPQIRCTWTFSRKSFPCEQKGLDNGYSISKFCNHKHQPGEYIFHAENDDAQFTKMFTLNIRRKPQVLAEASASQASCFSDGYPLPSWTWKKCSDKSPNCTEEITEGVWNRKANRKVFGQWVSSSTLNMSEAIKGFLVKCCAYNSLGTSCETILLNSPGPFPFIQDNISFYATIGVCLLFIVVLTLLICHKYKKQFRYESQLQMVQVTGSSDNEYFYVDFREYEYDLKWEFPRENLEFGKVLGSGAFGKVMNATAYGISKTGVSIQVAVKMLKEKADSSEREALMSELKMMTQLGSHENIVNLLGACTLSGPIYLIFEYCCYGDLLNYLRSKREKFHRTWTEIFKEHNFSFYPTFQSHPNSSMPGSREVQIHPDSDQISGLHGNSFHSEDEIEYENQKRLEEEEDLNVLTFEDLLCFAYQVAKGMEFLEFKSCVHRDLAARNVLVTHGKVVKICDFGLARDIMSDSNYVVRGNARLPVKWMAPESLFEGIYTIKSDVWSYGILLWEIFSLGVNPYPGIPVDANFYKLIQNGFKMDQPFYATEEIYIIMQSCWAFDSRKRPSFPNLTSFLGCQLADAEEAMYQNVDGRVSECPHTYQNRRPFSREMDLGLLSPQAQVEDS
# Sequence of Serine/threonine-protein kinase BRSK1 (Homo sapiens) (Q8TDC3 whole entry, the tested form may be a part): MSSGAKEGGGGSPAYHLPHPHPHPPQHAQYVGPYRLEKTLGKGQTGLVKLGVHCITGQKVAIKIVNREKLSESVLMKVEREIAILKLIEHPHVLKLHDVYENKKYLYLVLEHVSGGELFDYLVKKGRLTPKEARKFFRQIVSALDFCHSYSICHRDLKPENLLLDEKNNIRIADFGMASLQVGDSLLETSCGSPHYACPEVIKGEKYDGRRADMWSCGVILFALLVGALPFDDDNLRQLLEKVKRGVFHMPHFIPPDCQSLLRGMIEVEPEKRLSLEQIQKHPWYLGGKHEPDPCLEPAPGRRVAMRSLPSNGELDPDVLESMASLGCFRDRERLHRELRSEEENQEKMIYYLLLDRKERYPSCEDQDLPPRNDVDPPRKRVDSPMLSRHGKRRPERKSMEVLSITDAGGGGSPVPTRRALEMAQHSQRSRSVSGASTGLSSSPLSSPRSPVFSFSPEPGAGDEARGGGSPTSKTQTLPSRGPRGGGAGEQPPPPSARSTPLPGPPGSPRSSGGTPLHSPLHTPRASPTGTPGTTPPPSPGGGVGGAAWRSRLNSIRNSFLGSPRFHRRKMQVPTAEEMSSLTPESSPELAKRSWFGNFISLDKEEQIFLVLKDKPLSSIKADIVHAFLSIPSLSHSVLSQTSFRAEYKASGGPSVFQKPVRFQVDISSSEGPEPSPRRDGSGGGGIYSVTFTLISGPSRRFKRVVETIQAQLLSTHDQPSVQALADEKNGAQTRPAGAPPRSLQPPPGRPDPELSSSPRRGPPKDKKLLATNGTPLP
# Sequence of Angiopoietin-1 receptor (Homo sapiens) (Q02763 whole entry, the tested form may be a part): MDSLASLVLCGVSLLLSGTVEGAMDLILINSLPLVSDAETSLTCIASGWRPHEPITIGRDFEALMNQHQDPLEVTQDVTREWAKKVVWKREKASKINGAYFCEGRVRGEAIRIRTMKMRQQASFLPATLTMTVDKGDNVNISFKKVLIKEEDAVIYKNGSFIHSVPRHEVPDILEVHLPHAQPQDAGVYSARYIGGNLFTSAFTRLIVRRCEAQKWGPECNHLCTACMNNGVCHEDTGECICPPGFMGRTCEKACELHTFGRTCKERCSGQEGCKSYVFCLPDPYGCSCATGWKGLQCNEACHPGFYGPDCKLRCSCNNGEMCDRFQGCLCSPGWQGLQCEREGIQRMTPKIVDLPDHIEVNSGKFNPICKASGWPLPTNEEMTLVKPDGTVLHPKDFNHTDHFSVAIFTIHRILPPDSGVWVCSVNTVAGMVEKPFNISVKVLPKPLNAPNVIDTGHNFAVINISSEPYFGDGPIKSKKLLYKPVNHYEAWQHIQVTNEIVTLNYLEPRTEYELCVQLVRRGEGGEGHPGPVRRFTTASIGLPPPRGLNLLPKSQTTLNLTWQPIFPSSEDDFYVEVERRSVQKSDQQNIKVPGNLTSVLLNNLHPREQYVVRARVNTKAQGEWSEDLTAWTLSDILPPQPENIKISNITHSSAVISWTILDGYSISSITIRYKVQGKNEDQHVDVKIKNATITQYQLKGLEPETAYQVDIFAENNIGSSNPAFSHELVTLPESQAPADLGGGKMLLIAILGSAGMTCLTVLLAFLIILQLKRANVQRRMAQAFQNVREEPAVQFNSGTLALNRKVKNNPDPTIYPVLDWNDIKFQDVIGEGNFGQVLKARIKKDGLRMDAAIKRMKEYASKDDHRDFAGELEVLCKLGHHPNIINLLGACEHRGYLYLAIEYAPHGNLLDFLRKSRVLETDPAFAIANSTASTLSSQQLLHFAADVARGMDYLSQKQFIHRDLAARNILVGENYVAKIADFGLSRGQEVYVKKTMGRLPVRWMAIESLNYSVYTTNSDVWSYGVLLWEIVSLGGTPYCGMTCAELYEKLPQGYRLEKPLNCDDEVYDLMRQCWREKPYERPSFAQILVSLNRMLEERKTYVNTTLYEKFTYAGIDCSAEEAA
# Sequence of Serine/threonine-protein kinase NLK (Homo sapiens) (Q9UBE8 whole entry, the tested form may be a part): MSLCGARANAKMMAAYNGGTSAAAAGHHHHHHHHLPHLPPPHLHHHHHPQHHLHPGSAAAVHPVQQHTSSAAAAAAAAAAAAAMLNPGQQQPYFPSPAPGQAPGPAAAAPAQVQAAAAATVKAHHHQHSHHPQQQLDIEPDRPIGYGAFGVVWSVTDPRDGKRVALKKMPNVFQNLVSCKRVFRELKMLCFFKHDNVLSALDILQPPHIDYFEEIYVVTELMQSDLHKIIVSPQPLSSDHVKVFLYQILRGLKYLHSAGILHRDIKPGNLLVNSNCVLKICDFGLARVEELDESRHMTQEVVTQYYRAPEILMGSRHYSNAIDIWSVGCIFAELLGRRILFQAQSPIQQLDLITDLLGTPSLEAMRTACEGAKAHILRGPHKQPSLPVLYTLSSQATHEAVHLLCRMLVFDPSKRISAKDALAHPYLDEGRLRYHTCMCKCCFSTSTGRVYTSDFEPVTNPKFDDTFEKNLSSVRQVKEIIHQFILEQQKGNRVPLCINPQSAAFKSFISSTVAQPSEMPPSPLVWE
# Sequence of Phosphorylase b kinase gamma catalytic chain, skeletal muscle/heart isoform (Homo sapiens) (Q16816 whole entry, looked up, canonical isoform): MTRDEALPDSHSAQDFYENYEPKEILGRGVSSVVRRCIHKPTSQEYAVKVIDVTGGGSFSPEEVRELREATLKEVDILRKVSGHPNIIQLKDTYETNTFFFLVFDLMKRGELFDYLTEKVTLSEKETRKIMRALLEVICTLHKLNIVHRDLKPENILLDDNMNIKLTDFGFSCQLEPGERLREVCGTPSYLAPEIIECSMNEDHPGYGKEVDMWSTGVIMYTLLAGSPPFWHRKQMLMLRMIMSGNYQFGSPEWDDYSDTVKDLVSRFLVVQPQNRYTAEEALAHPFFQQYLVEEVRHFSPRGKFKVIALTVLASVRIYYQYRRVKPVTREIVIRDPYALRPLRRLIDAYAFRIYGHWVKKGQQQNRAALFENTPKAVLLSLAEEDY
smiles,measurement,setting,value
CN1C(=O)[C@@H](NC(=O)c2n[nH]c3ncc(C(F)(F)C(F)(F)F)cc23)COc2ccccc21,inhibition,[1],10.5%
same,inhibition,[2],-5.5%
same,inhibition,[3],-3.5%
same,inhibition,[4],0%
same,inhibition,[5],6%
same,inhibition,[6],1.5%
same,inhibition,[7],8.5%
same,inhibition,[8],-6.5%
same,inhibition,[9],-3.5%
same,inhibition,[10],6.5%
same,inhibition,[11],9%
same,clearance,[12],7.1 mL/min/kg
same,inhibition,[13],8.5%
same,inhibition,[14],7%
same,inhibition,TAK1/TAB1 (Homo sapiens),7.5%
same,inhibition,[15],-0.5%
same,inhibition,[16],2%
same,inhibition,[17],2.5%
same,inhibition,[18],0%
same,inhibition,[19],9%
same,inhibition,[20],0.5%
same,inhibition,[21],-1%
same,inhibition,[22],0.5%
same,inhibition,[23],-8.5%
